Assays:
[1] = biological target: Proto-oncogene tyrosine-protein kinase Src (Homo sapiens, UniProt P12931)
Description: Inhibition of Src (unknown origin) using [gamma-33P]ATP after 30 mins by radiometric assay

[2] = biological target: T1, Ephrin type-B receptor 1 (Homo sapiens) (UniProt P54762); experiment: Inhibition of human Eph-B1 using [gamma-33P]ATP assessed as residual activity at 3 uM after 30 mins by radiometric assay
T1 sequence (whole entry): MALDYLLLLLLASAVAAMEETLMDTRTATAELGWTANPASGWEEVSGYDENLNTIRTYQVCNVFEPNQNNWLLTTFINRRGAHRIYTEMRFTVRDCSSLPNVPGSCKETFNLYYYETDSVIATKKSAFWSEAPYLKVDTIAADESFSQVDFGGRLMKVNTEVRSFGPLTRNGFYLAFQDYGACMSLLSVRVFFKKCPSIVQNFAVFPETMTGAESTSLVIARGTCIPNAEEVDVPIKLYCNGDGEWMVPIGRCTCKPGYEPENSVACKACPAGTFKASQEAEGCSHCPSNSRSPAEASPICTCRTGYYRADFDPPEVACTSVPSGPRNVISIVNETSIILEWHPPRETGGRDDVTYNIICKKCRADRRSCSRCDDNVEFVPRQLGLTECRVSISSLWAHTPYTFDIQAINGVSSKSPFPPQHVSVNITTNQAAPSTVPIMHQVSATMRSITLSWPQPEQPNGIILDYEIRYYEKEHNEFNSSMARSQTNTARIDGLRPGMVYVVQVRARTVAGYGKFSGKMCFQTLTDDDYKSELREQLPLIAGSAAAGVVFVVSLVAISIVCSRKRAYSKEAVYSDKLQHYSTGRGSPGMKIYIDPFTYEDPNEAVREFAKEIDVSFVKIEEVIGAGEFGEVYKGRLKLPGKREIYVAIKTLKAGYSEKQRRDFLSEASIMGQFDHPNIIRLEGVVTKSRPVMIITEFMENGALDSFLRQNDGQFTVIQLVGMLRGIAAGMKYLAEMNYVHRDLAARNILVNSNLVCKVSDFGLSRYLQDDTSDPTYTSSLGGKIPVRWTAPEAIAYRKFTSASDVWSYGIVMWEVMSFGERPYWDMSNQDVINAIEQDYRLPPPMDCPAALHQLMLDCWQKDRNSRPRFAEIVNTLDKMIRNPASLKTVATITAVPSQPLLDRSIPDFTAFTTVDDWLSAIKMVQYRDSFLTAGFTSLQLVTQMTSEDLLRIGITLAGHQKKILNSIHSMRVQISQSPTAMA

[3] = biological target: Tyrosine-protein kinase Lck (Homo sapiens, UniProt P06239); experiment: Inhibition of Lck (unknown origin) using [gamma-33P]ATP after 30 mins by radiometric assay
Sequence of Tyrosine-protein kinase Lck (P06239 whole entry): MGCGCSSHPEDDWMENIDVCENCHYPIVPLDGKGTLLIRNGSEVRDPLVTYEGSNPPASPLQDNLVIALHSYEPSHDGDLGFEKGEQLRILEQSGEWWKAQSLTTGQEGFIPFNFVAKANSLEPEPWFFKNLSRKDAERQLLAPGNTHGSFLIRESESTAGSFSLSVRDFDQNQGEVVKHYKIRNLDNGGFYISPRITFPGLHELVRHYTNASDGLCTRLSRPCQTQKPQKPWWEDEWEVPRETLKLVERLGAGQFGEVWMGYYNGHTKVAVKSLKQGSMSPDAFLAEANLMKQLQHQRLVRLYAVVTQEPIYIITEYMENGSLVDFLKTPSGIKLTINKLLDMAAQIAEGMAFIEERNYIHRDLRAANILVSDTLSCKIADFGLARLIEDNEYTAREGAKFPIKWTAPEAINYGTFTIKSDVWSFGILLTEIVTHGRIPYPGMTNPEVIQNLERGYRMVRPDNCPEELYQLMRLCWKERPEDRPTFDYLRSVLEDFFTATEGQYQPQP

[4] = Cytotoxicity against human PAXF 1657L cells after 4 days by propidium iodide staining; settings: 96 h
Ephrin type-B receptor 4 [5] = biological target: T2, Ephrin type-B receptor 4 (Homo sapiens, UniProt P54760)
T2 sequence (P54760 whole entry): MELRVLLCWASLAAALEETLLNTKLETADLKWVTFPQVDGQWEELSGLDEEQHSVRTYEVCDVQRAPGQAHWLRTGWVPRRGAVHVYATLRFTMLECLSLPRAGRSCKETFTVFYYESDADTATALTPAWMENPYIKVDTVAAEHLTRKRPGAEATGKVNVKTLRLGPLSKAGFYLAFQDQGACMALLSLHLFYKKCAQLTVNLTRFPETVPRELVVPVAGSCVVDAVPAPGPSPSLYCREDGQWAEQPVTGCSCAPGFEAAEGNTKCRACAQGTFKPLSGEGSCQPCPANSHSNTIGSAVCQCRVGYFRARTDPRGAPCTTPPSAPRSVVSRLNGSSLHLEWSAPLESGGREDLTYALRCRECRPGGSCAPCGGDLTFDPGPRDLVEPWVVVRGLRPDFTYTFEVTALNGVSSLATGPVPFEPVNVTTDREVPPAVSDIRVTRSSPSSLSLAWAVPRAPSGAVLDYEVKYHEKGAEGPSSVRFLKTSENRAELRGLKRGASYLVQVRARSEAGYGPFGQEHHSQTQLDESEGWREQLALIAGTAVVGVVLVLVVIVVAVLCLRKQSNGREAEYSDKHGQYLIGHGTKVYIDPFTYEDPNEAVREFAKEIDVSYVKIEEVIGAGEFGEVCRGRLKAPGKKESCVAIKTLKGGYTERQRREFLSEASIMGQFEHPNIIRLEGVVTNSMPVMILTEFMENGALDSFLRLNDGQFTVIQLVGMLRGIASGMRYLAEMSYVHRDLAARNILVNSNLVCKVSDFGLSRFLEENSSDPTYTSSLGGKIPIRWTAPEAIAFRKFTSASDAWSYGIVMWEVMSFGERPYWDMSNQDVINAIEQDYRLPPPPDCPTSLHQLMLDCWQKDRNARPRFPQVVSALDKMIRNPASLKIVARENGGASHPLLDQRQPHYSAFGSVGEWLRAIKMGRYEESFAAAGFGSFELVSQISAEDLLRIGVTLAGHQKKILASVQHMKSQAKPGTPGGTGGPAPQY
Description: Inhibition of human myc-tagged full length EphB4 expressed in MEF cells assessed as inhibition of ephrinB2-Fc-induced autophosphorylation incubated for 90 mins prior to ephrinB2-Fc-induction measured after 2 hrs by sandwich ELISA

[6] = Permeability from basolateral to apical side in human Caco2 cells assessed as compound recovery after 2 hrs by LC-MS/MS analysis; format: ADME, cell-based; settings: Caco-2, read-out: permeability
in vitro = settings: human, Caco-2
Description: Efflux ratio of apparent permeability from basolateral to apical side to apical to basolateral side in human Caco2 cells

[7] = Cytotoxicity against human CXF 1103L cells after 4 days by propidium iodide staining; settings: 96 h
[8] = Apparent permeability from basolateral to apical side in human Caco2 cells after 2 hrs by LC-MS/MS analysis; format: ADME, cell-based; settings: Caco-2
[9] = biological target: Tyrosine-protein kinase Yes (Homo sapiens, UniProt P07947); experiment: Inhibition of human Yes1 using [gamma-33P]ATP assessed as residual activity at 3 uM after 30 mins by radiometric assay
Sequence of Tyrosine-protein kinase Yes (P07947 2-543 limits assumed): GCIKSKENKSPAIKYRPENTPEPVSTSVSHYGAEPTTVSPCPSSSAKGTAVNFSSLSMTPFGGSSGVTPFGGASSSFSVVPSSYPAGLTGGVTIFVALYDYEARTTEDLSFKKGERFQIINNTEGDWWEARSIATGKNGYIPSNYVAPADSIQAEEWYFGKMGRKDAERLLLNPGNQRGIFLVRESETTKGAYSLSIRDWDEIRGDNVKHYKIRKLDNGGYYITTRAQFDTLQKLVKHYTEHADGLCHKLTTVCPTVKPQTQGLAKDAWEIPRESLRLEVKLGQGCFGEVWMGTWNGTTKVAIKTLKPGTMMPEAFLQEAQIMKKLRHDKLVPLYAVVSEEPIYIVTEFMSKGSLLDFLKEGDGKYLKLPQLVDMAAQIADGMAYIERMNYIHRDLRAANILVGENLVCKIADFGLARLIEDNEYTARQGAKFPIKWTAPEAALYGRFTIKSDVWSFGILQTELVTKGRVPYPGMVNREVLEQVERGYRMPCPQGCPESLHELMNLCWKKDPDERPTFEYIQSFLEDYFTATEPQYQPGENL

DU-145 = experiment: Cytotoxicity against human PRXF DU145 cells after 4 days by propidium iodide staining; settings: DU-145, 96 h
[10] = Cytotoxicity against human RXF 393NL cells after 4 days by propidium iodide staining; settings: 96 h
[11] = biological target: Ephrin type-A receptor 2 (Homo sapiens) (UniProt P29317); experiment: Inhibition of human Eph-A2 using [gamma-33P]ATP assessed as residual activity at 3 uM after 30 mins by radiometric assay
Sequence of Ephrin type-A receptor 2 (Homo sapiens) (P29317 whole entry): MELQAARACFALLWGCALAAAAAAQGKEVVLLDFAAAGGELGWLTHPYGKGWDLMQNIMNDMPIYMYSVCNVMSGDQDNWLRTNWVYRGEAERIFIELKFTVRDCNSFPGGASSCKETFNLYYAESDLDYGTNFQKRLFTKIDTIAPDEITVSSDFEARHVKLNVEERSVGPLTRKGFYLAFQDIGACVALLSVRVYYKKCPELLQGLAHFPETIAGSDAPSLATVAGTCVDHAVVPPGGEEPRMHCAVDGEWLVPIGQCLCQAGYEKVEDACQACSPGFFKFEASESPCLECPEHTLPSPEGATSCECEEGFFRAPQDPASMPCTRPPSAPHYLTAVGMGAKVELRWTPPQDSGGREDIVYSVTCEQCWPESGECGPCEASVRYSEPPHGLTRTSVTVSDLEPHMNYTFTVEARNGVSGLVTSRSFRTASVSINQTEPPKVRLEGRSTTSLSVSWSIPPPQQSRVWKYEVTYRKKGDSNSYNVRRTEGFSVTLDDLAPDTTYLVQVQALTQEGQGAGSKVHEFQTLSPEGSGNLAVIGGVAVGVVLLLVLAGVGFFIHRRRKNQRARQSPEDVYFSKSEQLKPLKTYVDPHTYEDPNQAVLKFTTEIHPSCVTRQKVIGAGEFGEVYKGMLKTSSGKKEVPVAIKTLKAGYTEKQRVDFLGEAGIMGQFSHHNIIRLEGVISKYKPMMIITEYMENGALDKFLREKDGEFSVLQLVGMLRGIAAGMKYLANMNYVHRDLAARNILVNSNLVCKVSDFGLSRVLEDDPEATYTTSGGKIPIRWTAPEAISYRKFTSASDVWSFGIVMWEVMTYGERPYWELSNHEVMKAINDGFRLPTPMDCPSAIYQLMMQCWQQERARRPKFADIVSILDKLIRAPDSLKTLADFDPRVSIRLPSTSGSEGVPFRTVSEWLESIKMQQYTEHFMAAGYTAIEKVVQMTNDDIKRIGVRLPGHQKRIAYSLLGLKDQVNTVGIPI

[12] = biological target: Receptor-interacting serine/threonine-protein kinase 2 (Homo sapiens) (UniProt O43353); experiment: Inhibition of human RIPK2 using [gamma-33P]ATP assessed as residual activity at 3 uM after 30 mins by radiometric assay
Sequence of Receptor-interacting serine/threonine-protein kinase 2 (Homo sapiens) (O43353 whole entry): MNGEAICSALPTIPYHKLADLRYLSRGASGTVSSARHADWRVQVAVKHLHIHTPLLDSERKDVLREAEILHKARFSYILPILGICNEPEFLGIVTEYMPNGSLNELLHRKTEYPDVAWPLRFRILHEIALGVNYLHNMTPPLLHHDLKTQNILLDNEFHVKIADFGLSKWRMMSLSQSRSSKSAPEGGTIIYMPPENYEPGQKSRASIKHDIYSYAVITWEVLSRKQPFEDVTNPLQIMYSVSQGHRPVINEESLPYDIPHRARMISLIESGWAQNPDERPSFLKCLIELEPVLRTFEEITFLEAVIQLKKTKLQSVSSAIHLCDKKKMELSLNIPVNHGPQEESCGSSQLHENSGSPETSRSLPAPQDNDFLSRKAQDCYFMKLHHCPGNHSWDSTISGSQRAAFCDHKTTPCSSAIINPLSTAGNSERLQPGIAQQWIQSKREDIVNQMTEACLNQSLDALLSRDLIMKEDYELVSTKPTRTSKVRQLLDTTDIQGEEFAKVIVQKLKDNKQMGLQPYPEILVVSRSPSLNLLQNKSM

[13] = biological target: Tyrosine-protein kinase CSK (Homo sapiens) (UniProt P41240); experiment: Inhibition of human CSK using [gamma-33P]ATP assessed as residual activity at 3 uM after 30 mins by radiometric assay
Sequence of Tyrosine-protein kinase CSK (Homo sapiens) (P41240 2-450 limits assumed): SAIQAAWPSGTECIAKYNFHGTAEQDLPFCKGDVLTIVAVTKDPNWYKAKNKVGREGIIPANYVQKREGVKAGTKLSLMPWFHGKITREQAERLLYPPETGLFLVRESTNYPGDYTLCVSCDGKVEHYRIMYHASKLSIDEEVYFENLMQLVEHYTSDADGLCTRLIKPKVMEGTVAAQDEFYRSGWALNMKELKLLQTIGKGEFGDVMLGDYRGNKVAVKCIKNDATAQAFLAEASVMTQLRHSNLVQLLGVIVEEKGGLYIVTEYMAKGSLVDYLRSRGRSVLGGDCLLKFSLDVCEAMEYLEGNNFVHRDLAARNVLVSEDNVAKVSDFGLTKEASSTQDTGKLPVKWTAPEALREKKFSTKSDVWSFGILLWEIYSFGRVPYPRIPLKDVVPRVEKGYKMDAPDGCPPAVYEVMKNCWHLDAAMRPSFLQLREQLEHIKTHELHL

Ephrin type-B receptor 4 [14] = biological target: T2, Ephrin type-B receptor 4; experiment: Inhibition of EphB4 (unknown origin) transfected in CHO cells using Z'-LYTE TYR-1 peptide as substrate after 2 hrs by FRET assay; format: cell-based
[15] = biological target: Ephrin type-A receptor 4 (Homo sapiens) (UniProt P54764); experiment: Inhibition of human Eph-A4 using [gamma-33P]ATP assessed as residual activity at 3 uM after 30 mins by radiometric assay
Sequence of Ephrin type-A receptor 4 (Homo sapiens) (P54764 whole entry): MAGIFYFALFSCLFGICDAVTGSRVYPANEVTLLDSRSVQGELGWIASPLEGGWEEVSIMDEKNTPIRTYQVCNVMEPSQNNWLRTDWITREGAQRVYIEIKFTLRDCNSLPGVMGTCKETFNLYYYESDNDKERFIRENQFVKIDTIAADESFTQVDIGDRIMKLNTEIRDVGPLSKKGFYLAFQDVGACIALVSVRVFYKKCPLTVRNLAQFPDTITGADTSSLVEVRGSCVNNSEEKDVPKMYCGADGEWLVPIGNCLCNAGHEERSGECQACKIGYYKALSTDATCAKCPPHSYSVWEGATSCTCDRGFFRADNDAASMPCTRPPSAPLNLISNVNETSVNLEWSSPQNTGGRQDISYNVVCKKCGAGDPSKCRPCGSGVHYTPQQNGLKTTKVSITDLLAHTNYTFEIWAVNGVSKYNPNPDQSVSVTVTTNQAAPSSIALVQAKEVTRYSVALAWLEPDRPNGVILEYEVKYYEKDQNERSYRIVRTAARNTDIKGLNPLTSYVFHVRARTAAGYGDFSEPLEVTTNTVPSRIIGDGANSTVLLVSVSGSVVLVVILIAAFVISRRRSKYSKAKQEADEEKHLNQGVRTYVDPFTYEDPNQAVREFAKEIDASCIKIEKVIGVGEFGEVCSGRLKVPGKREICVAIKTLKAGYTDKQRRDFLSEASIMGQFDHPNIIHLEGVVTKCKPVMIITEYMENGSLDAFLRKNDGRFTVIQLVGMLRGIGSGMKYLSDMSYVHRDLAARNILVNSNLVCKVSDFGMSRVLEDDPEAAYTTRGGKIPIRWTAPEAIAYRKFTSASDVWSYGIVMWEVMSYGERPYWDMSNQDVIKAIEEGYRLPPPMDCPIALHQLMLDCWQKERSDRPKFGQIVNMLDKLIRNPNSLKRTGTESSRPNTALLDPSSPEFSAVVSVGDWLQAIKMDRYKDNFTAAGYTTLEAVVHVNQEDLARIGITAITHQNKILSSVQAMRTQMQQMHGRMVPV

Sequence of Proto-oncogene tyrosine-protein kinase Src (P12931 2-536 limits assumed): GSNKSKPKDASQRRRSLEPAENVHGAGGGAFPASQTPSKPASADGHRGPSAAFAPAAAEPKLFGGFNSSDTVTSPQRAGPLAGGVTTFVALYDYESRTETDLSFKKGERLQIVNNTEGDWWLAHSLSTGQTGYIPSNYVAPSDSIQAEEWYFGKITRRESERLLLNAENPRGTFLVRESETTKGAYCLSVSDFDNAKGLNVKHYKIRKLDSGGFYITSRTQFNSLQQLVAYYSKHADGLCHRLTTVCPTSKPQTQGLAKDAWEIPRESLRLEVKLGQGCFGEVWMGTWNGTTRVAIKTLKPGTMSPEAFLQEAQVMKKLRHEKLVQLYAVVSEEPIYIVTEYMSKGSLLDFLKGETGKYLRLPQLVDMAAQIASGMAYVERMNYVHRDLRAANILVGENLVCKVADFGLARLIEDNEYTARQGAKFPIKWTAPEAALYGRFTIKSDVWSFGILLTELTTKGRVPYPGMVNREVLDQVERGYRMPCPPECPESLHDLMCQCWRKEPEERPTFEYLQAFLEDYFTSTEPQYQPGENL

IC50 [1]: 0.071 µM
Activity [2]: 10%
IC50 [3]: 0.493 µM
IC50 (Ephrin type-B receptor 4 [5]): 0.05 µM
recovery at 2 h [6]: 89%
efflux ratio (in vitro): 0.7
Papp B→A at 2 h [8]: 28.1 ×10⁻⁶ cm/s
Activity [9]: 14%
Activity [11]: 6%
Activity [12]: 12%
Activity [13]: 57%
IC50 (Ephrin type-B receptor 4 [14]): 0.056 µM
Activity [15]: 5%
Structure (SMILES): CCCCn1c(-c2ccccc2C)cn2c3c(=O)[nH]c(=O)n(C)c3nc12
IC50 [4]: 8.1 µM
IC50 [7]: 4.61 µM
IC50 (DU-145): 11.2 µM
IC50 [10]: 7.6 µM
